From patent US20200123147A1, “THIAZOLE COMPOUNDS USEFUL AS PRMT5 INHIBITORS” (Bayer Aktiengesellschaft, priority 2017, published 2020) come the findings set out here.

For assay [1], the target named is T1, PRMT5:MEP50 protein complex (Homo sapiens, UniProt O14744).
T1 construct: FLAG (N); made in house; host or cells: Hi5 insect cells
The experiment in a line: In vitro assay 1: PRMT5 SPA assay ("EAA"). The settings on record: scintillation proximity assay, methylation of biotinylated H4(1-24) peptide, 3H-SAM, 60 min at 22° C. The format is biochemical. The source says: In Vitro Assay 1: PRMT5 SPA Assay (“EAA”)
PRMT5 inhibitory activities of the compounds described in the present invention were quantified using a scintillation proximity assay (SPA) which measures methylation by the enzyme of a synthetic, biotinylated peptide corresponding to the N-terminal sequence of Histone H4 (a.a. 1-24). The peptide of sequence […]-K(Btn)-amide is commercially available (e.g. from Biosyntan) and will be herein referred to as H4(1-24). The PRMT5:MEP50 protein complex used in the assay was produced in house following standard protocols. Briefly, full length PRMT5 and MEP50 constructs respectively tagged with N-terminal FLAG and 6× His sequences were co-expressed in Hi5 insect cells, and the recombinant protein complex was purified by FLAG affinity and size exclusion chromatography.
In a typical assay 11 different concentrations of each compound (0.1 nM, 0.33 nM, 1.1 nM, 3.8 nM, 13 nM, 44 nM, 0.15 μM, 0.51 μM, 1.7 μM, 5.9 μM and 20 μM) were tested in duplicate within the same microtiter plate. To this end, 100-fold concentrated compound solutions (in DMSO) were previously prepared by serial dilution (1:3.4) of 2 mM stocks in a clear low volume 384-well source microtiter plate (Greiner Bio-One), from which 50 nl of compounds were transferred into a white low volume test microtiter plate from the same supplier. Subsequently, 2.5 μL PRMT5 in aqueous assay buffer [20 mM Bicine pH 8.0 (Alfa Aesar), 7.5 mM Tris(2-carboxyethyl) phosphine hydrochloride (TCEP, Sigma), 0.1% (w/v) bovine gamma globuline (BGG, Sigma), 0.002% (v/v) Tween-20 (Sigma)] were added to the compounds in the test plate to a final enzyme concentration of—typically—7.5 nM (this parameter was adjusted depending on the activity of the enzyme lot in order to be within the linear dynamic range of the assay). The samples were then incubated for 15 min at 22° C. to allow pre-equilibration of the putative enzyme-inhibitor complexes before the start of the methylation reaction, which was initiated by the addition of 2.5 μL 2-fold concentrated solution (in assay buffer) of “cold” S-Adenosyl-L-Methionine (SAM, Sigma, final concentration: 0.5 μM), tritiated 3H-SAM (Perkin Elmer, final concentration: 0.5 μM) and H4(1-24) peptide substrate (final concentration: 0.06 μM). The resulting mixture (5 μL final volume) was shortly centrifuged (2 min., 1500 rpm) and incubated at 22° C. during 60 min. Thereupon the reaction was stopped by adding 3 μL of Streptavidin PS SPA imaging beads (Perkin Elmer, final concentration of 0.375 μg/μL) and “cold” SAM (AK Scientific, 250 μM final concentration) for non-specific binding reduction. Plates containing the stopped reaction were sealed with transparent adhesive foil (Perkin Elmer), centrifuged (2 min., 1500 rpm), and further incubated either 1 h at 22° C. or overnight at 4° C. in order to allow the SPA signals to develop. Subsequently, the amount of product was evaluated by measuring the energy transfer from the β-particles emitted by the 3H-labeled substrate to the Europium scintillator co-polymerized in the polystyrene matrix of the PS imaging beads, using the standard settings for this purpose of a Viewlux (Perkin-Elmer) CCD plate imaging device (emission filter 613/55 (IFP).
The resulting scintillation counts were taken as indicator for the amount of methylated peptide per well. The data were normalised using two sets of control wells (typically 16 each) for high—(=enzyme reaction with DMSO instead of test compound=0%=minimum inhibition) and low—(=all assay components without enzyme=100%=maximum inhibition) PRMT5 activity. IC50 values were calculated by fitting the normalized inhibition data to a 4-parameter logistic equation using the “Screener” analysis software from Genedata.
On the technique in general: SPA uses beads or plates that emit light when radiolabelled molecules are held near them.

The test system of assay [2] is PRMT5 (histone H4 Arg3 SDMA levels in MDA-MB-468 cells). Description: In vitro assay 2: quantification of SDMA (symmetric dimethylarginine) expression levels (H4 Arg3) in cancer cells, High-Content Analysis. The format is cell-based. The settings on record: Homo sapiens, 72 h, SDMA histone H4 (Arg3) average signal intensity per cell. An excerpt:
In Vitro Assay 2: Quantification of SDMA (Symmetric Dimethylarginine) Expression Levels (H4 Arg3) After Small Molecule Treatment of Cancer Cells
The SDMA-assay based on High-Content Analysis (HCA) enables the biological characterization of compounds inhibiting PRMT5. By this assay, substances are benchmarked on their cellular activity to modulate histone H4 Arg3 levels over broad inhibitor concentration ranges.
Cultivated cells of the human mammary gland tumor cell line MDA-MB-468 (ATCC HTB-132) were plated at a density of 2500 cells per well in a 384-well microtiter plate in 20 μL of Roswell Park Memorial Institute (RPMI) 1640 medium supplemented with 1% (v/v) glutamine, 1% (v/v) penicillin, 1% (v/v) streptomycin and 10% (v/v) fetal calf serum. After pre-incubation at 37° C. overnight, test compo unds solubilized in DMSO were added at various concentrations (0 μM, as well as in the range of 0.005 μM-30 μM; the final concentration of the solvent DMSO was 0.5% (v/v)). Cells were incubated at 37° C. for 72 h in the presence of test compounds. Thereafter, cells were fixed with 4% (v/v) paraformaldehyde in phosphate buffered saline (PBS) at room temperature for 1 h, permeabilized using 0.5% (v/v) Triton X™ 100 in PBS for 15 min and blocked with 1% (v/v) bovine serum albumin (BSA) in PBS for 30 min. In the following, cells were incubated with anti-dimethyl-histone H4 (Arg3) symmetric antibody (Millipore #07-947) at RT for 2 h. After a single washing step with blocking solution, cells were incubated with species-specific fluorescent conjugated secondary antibody Alexa Fluor™ 488 (Jackson Immuno Research #111-546-003) at RT for 2 h.
Image acquisition for cells was carried out using the confocal imaging system OPERA® (PerkinElmer). Images were captured using two channels: Hoechst 33342 stain (DNA) and Alexa Fluor™ 488 (SDMA staining); and were analyzed using the MetaXpress® software (Molecular Devices). Exposure times were chosen for individual experiments to prevent saturation and allow for quantification in the linear range. A minimum of 500 cells in 5 field views were analyzed per well using 10× water immersion objective with a two-fold binning.
The image analysis routine was developed in MetaXpress®. The standardized image-analysis module “Count Nuclei” and the images of the DNA-channel were used for nuclei segmentation. The segmented nuclei were filtered for size, shape and signal intensity to exclude possible apoptotic and non-viable cells along with metaphase nuclei. These phenotypes result in overestimated antibody signals, due to their strong chromatin compaction. For further processing, binary object masks were calculated from the segmented and positively selected nuclei. The binary masks served as templates to be superimposed over the images of the SDMA channel. The SDMA average signal intensity per cell was quantified for every image set. The assay raw data were further analyzed by four parameter logistic regression analysis using Genedata's Assay Analyzer® and Condoseo® software to determine the IC50 value for each tested compound.

T1 sequence (O14744 whole entry, species assumed): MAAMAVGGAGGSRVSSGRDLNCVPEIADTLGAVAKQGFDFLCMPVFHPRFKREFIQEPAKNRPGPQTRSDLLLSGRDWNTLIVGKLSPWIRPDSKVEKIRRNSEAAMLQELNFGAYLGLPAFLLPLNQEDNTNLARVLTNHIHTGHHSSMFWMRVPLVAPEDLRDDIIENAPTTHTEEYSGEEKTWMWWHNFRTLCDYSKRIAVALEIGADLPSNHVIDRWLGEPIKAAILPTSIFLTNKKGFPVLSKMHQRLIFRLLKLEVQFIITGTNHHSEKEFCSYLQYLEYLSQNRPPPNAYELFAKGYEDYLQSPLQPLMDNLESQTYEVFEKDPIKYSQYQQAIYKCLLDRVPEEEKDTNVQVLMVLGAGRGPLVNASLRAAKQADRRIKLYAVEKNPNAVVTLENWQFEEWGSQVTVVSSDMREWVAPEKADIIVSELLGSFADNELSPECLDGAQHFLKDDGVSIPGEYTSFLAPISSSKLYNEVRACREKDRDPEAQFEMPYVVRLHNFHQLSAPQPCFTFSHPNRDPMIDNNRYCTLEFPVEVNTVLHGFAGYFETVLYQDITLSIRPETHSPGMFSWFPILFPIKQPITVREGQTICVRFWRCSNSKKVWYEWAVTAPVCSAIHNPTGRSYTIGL
T1 sequence (Q9BQA1 whole entry partner, species assumed): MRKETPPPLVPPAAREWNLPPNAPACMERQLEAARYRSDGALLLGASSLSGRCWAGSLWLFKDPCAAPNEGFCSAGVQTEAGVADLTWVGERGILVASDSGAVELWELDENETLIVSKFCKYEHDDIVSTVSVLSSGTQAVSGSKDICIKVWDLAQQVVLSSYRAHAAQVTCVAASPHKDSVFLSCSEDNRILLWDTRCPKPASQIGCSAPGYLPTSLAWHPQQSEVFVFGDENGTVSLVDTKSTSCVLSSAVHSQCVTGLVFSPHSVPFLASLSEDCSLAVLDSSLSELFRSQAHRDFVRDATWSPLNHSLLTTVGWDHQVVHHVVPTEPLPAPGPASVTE

As a reminder, the IC50 is the concentration needed to halve the response being measured. A low value points to inhibition by little substance. Consider `O=C(Nc1cc(-c2ccccc2)[nH]n1)c1csc(Nc2ccc(Cl)cc2)n1` [Example 1, 2-[(4-Chlorophenyl)amino]-N-(5-phenyl-1H-pyrazol-3-yl)-1,3-thiazole-4-carboxamide], for which the IC50 is 0.0548 µM in assay [1] and at least 30 µM in assay [2]. On the same counts, the results for `CC(C)(C)c1cc(NC(=O)c2csc(Nc3ccccn3)n2)no1` [Example 2, N-(5-tert-Butyl-1,2-oxazol-3-yl)-2-(pyridin-2-ylamino)-1,3-thiazole-4-carboxamide] are 0.078 µM and 2.45 µM.

Regarding `CC(C)(C)c1cc(NC(=O)c2csc(Nc3ccccc3)n2)no1` [Example 3, N-(5-tert-Butyl-1,2-oxazol-3-yl)-2-(phenylamino)-1,3-thiazole-4-carboxamide], the IC50 in assay [1] stood at 0.177 µM; in assay [2], 25.4 µM. For `CC(C)(C)c1cc(NC(=O)c2csc(Nc3ccc(Cl)cc3)n2)no1` [Example 4, N-(5-tert-Butyl-1,2-oxazol-3-yl)-2-[(4-chlorophenyl)amino]-1,3-thiazole-4-carboxamide], the IC50 in assay [1] was found to be 0.104 µM; in assay [2], 20.8 µM. For `O=C(Nc1cc(C2CC2)n[nH]1)c1csc(Nc2ccc(Cl)cc2)n1` [Example 5, 2-[(4-Chlorophenyl)amino]-N-(3-cyclopropyl-1H-pyrazol-5-yl)-1,3-thiazole-4-carboxamide], the IC50 in assay [1] was 0.113 µM; in assay [2], at least 30 µM.

With `CC(C)(C)c1cc(NC(=O)c2csc(Nc3ccc(F)cc3)n2)no1` [Example 7, N-(5-tert-Butyl-1,2-oxazol-3-yl)-2-[(4-fluorophenyl)amino]-1,3-thiazole-4-carboxamide], the IC50 in assay [1] amounted to 0.149 µM; in assay [2], 17.6 µM. In the same order, the values of `O=C(Nc1nc2ccccc2s1)c1csc(Nc2ccc(Cl)cc2)n1` [Example 8, N-(1,3-Benzothiazol-2-yl)-2-[(4-chlorophenyl)amino]-1,3-thiazole-4-carboxamide] are 0.111 µM and at least 30 µM. In the same order, the values of `Cn1nc(NC(=O)c2csc(Nc3ccccc3)n2)cc1C(F)(F)F` [Example 10, N-[1-Methyl-5-(trifluoromethyl)-1H-pyrazol-3-yl]-2-(phenylamino)-1,3-thiazole-4-carboxamide] are 0.238 µM and 27.9 µM. On to `CC(C)(C)c1cc(NC(=O)c2csc(Nc3ccc(Cl)cc3)n2)n[nH]1` [Example 12, N-(5-tert-Butyl-1H-pyrazol-3-yl)-2-[(4-chlorophenyl)amino]-1,3-thiazole-4-carboxamide], for which the IC50 in assay [1] was 0.295 µM; in assay [2] it was 22.1 µM.

Take `CC(C)(C)c1cc(NC(=O)c2csc(Nc3ccc([N+](=O)[O-])cc3)n2)no1` [Example 13, N-(5-tert-Butyl-1,2-oxazol-3-yl)-2-[(4-nitrophenyl)amino]-1,3-thiazole-4-carboxamide]: the IC50 is 0.344 µM in assay [1] and 26.1 µM in assay [2].

In the case of `O=C(Nc1cc(C2CC2)n[nH]1)c1csc(Nc2ccccc2)n1` [Example 14, N-(3-Cyclopropyl-1H-pyrazol-5-yl)-2-(phenylamino)-1,3-thiazole-4-carboxamide], the values for the IC50 in assay [1] and in assay [2] were 0.303 µM and 18.6 µM, respectively. As for `CCn1ccc(NC(=O)c2csc(Nc3ccc(Cl)cc3)n2)n1` [Example 15, 2-[(4-Chlorophenyl)amino]-N-(1-ethyl-1H-pyrazol-3-yl)-1,3-thiazole-4-carboxamide], the values for the IC50 in assay [1] and in assay [2] were 0.4 µM and at least 30 µM, respectively. On the same counts, the results for `O=C(NCCCCN1CCc2ccccc2C1)c1csc(Nc2ccc(Cl)cc2)n1` [Example 17, 2-[(4-Chlorophenyl)amino]-N-[4-(3,4-dihydroisoquinolin-2(1H)-yl)butyl]-1,3-thiazole-4-carboxamide] are 0.585 µM and 10 µM.

`Cc1ccc(Nc2nc(C(=O)Nc3cc(C(C)(C)C)on3)cs2)cc1Cl` [Example 18, N-(5-tert-Butyl-1,2-oxazol-3-yl)-2-[(3-chloro-4-methylphenyl)amino]-1,3-thiazole-4-carboxamide]: the values for the IC50 in assay [1] and in assay [2] were 0.819 µM and at least 30 µM, respectively.

In assay [1], `CC(C)(C)c1cc(NC(=O)c2csc(Nc3cccc(Cl)c3)n2)no1` [Example 48, N-(5-tert-Butyl-1,2-oxazol-3-yl)-2-[(3-chlorophenyl)amino]-1,3-thiazole-4-carboxamide] had an IC50 of 2.99 µM. `Cc1cc(F)ccc1Nc1nc(C(=O)Nc2cc(C(C)(C)C)on2)cs1` [Example 50, N-(5-tert-Butyl-1,2-oxazol-3-yl)-2-[(4-fluoro-2-methylphenyl)amino]-1,3-thiazole-4-carboxamide] gave an IC50 in assay [1] of 6.71 µM. The compound `C#Cc1cccc(Nc2nc(C(=O)Nc3cc(C(C)(C)C)on3)cs2)c1` [Example 51, N-(5-tert-Butyl-1,2-oxazol-3-yl)-2-[(3-ethynylphenyl)amino]-1,3-thiazole-4-carboxamide] returned an IC50 in assay [1] of 10.5 µM. This IC50 lies about 1.6-fold higher than the previous one.

With `CC(C)(C)c1cc(NC(=O)c2csc(Nc3cccc(F)c3F)n2)no1` [Example 52, N-(5-tert-Butyl-1,2-oxazol-3-yl)-2-[(2,3-difluorophenyl)amino]-1,3-thiazole-4-carboxamide], half-maximal inhibition in assay [1] (IC50) required 12.3 µM. Same read-out and setting: the result for `CC(C)(C)c1cc(NC(=O)c2csc(Nc3ccc(F)nc3)n2)no1` [Example 53, N-(5-tert-Butyl-1,2-oxazol-3-yl)-2-[(6-fluoropyridin-3-yl)amino]-1,3-thiazole-4-carboxamide] reads 15.2 µM.
